Assays:
[1] = target: BRM (Homo sapiens, UniProt P51531); assay: ATPase catalytic activity of BRM (ADP-Glo in vitro biochemical assay); settings: for BRM Max % Inhibition: Table 6
[2] = target: BRG-1 (Homo sapiens, UniProt P51532); assay: ATPase catalytic activity of BRG-1 (ADP-Glo in vitro biochemical assay); settings: for BRG1 Max % Inhibition: Table 6
Sequence of BRG-1 (P51532 whole entry): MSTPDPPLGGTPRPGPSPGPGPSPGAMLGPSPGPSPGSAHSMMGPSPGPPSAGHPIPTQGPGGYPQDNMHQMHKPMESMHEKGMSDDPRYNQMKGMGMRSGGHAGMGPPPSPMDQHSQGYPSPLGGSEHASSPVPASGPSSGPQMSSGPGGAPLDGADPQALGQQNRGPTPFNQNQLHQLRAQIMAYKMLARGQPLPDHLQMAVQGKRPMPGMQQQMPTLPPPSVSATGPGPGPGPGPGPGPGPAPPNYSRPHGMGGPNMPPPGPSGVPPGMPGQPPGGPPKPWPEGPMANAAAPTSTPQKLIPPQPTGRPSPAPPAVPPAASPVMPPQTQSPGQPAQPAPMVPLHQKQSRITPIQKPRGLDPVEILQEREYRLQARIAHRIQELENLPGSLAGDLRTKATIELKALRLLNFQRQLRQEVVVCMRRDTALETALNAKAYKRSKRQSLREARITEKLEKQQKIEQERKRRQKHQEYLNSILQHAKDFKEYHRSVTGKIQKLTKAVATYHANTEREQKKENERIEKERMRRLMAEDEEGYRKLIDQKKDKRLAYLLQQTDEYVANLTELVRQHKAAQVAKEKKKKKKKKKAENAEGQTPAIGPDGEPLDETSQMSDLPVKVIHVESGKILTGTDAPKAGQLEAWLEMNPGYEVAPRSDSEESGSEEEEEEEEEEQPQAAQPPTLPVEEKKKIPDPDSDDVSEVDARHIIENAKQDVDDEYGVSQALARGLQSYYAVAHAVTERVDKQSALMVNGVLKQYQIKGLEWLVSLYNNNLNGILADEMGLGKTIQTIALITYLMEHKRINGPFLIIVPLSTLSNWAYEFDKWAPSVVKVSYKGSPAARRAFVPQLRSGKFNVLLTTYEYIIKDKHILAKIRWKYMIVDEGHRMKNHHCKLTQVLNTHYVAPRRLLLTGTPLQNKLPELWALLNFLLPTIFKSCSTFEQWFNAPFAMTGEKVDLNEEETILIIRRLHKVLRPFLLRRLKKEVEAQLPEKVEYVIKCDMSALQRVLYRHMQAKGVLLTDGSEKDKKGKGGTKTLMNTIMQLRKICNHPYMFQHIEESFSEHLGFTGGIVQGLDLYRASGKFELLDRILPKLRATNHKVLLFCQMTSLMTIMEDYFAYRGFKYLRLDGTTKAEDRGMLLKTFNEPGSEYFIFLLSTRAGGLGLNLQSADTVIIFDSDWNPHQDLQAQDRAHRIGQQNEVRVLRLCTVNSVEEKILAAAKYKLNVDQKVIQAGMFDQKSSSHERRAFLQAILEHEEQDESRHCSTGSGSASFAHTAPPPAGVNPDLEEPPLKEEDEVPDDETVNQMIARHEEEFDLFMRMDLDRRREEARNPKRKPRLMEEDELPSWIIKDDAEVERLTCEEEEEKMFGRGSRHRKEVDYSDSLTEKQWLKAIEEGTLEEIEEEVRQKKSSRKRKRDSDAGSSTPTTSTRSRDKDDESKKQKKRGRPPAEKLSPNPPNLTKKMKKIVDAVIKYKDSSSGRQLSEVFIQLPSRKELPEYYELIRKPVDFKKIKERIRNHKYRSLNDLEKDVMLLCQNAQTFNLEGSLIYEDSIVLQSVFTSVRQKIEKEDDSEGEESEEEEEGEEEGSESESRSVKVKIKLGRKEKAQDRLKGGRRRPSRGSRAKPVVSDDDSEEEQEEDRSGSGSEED

Sequence of BRM (P51531 whole entry): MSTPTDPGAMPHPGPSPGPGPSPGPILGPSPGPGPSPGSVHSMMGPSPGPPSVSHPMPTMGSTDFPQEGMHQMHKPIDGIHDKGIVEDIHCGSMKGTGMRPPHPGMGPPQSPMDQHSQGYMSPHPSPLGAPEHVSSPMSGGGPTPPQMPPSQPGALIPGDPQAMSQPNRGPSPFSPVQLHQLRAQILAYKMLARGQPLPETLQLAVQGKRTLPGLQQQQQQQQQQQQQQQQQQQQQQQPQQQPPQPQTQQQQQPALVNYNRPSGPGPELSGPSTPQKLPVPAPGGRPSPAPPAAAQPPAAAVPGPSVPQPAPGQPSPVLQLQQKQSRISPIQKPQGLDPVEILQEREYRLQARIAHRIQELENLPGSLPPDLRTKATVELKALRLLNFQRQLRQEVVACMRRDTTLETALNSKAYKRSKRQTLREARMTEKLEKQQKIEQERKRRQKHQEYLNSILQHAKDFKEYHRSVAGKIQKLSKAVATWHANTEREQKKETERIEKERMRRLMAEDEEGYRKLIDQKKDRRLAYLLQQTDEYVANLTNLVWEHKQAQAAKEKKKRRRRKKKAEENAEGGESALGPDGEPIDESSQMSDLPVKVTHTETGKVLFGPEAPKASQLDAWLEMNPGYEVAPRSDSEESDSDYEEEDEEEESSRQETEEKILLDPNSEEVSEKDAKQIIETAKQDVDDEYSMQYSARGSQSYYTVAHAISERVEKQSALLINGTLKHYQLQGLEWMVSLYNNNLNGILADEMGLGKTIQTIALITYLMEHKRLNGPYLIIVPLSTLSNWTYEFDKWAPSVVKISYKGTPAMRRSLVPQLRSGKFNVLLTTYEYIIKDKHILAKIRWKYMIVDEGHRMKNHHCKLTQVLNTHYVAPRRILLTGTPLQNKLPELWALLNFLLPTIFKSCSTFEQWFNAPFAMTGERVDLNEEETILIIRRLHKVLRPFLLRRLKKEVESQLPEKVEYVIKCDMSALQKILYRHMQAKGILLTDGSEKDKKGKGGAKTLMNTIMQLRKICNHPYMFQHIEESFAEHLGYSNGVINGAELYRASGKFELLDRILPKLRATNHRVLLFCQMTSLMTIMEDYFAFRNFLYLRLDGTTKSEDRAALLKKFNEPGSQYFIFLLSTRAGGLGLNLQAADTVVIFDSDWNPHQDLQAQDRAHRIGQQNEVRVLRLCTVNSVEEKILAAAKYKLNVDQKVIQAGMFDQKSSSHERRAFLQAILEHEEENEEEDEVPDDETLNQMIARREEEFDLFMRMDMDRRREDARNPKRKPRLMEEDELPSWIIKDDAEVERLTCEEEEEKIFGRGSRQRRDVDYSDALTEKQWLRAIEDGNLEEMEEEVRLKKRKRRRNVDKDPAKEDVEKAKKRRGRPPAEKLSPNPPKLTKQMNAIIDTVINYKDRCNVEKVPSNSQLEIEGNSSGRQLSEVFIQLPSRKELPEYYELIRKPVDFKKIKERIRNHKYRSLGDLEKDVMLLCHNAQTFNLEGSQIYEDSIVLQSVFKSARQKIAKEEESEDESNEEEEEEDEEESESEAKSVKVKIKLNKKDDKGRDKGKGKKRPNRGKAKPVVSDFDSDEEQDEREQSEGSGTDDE

For `Nc1ccc(C(=O)NCC(=O)Nc2nc(-c3cccc(N4CCOCC4)c3)cs2)cc1` [Compound 179, 4-amino-N-(2-((4-(3-morpholinophenyl)thiazol-2-yl)amino)-2-oxoethyl)benzamide], the IC50 [1] was 0.1 to 1 µM, the “BRM Max % Inhibition” value [1] was over 90% and the IC50 [2] was 0.1 to 1 µM. The “BRG1 Max % Inhibition” value [2] was over 95%.

For `COC(=O)Cn1cc(-c2cccc(-c3csc(NC(=O)CNC(=O)c4ccc(N)cc4)n3)c2)cn1` [Compound 180, methyl 2-(4-(3-(2-(2-(4-aminobenzamido)acetamido)thiazol-4-yl)phenyl)-1H-pyrazol-1-yl)acetate], the IC50 [1] was 0.1 to 1 µM, the “BRM Max % Inhibition” value [1] was over 90% and the IC50 [2] was 0.1 to 1 µM. The “BRG1 Max % Inhibition” value [2] was over 95%.

For `COC(=O)c1cc(-c2cccc(-c3csc(NC(=O)CNC(=O)c4ccc(N)cc4)n3)c2)ccn1` [Compound 181, methyl 4-(3-(2-(2-(4-aminobenzamido)acetamido)thiazol-4-yl)phenyl)picolinate], the IC50 [1] was under 0.1 µM, the “BRM Max % Inhibition” value [1] was over 95% and the IC50 [2] was under 0.1 µM. For the same compound, the “BRG1 Max % Inhibition” value [2] was over 95%.

For `COC(=O)C(C)(C)c1cc(-c2cccc(-c3csc(NC(=O)CNC(=O)c4ccc(N)cc4)n3)c2)ccn1` [Compound 182, methyl 2-(4-(3-(2-(2-(4-aminobenzamido)acetamido)thiazol-4-yl)phenyl)pyridin-2-yl)-2-methylpropanoate], the IC50 [1] was under 0.1 µM, the “BRM Max % Inhibition” value [1] was over 95% and the IC50 [2] was 0.1 to 1 µM. The “BRG1 Max % Inhibition” value [2] was over 90%.

For `CC(=O)N(C)c1cc(-c2cccc(-c3csc(NC(=O)CNC(=O)c4ccc(N)cc4)n3)c2)ccn1` [Compound 183, 4-amino-N-(2-((4-(3-(2-(N-methylacetamido)pyridin-4-yl)phenyl)thiazol-2-yl)amino)-2-oxoethyl)benzamide], the IC50 [1] was under 0.1 µM, the “BRM Max % Inhibition” value [1] was over 95% and the IC50 [2] was under 0.1 µM. For the same compound, the “BRG1 Max % Inhibition” value [2] was over 95%.

In the case of `Nc1ccc(C(=O)NCC(=O)Nc2nc(-c3cccc(-c4ccncc4)c3)cs2)nc1` [Compound 184, 5-amino-N-(2-oxo-2-((4-(3-(pyridin-4-yl)phenyl)thiazol-2-yl)amino)ethyl)picolinamide], the IC50 [1] is reported as under 0.1 µM, the “BRM Max % Inhibition” value [1] is reported as over 80% and the IC50 [2] is reported as under 0.1 µM. For the same compound, the “BRG1 Max % Inhibition” value [2] was over 70%.

`Nc1ccc(C(=O)NCC(=O)Nc2nc(-c3cccc(N4CCS(=O)(=O)CC4)c3)cs2)cc1` [Compound 185, 4-amino-N-(2-((4-(3-(1,1-dioxidothiomorpholino)phenyl)thiazol-2-yl)amino)-2-oxoethyl)benzamide] was tested, and the IC50 [1] was 0.1 to 1 µM, the “BRM Max % Inhibition” value [1] was over 80% and the IC50 [2] was 0.1 to 1 µM. The “BRG1 Max % Inhibition” value [2] was over 70%.

In the case of `CN(C)CCNC(=O)Cc1cc(-c2cccc(-c3csc(NC(=O)CNC(=O)c4ccc(N)cc4)n3)c2)ccn1` [Compound 186, 4-amino-N-[2-[[4-[3-[2-[2-[2-(dimethylamino)ethylamino]-2-oxo-ethyl]-4-pyridyl]phenyl]thiazol-2-yl]amino]-2-oxo-ethyl]benzamide], the IC50 [1] is reported as 0.1 to 1 µM, the “BRM Max % Inhibition” value [1] is reported as over 95% and the IC50 [2] is reported as 0.1 to 1 µM. For the same compound, the “BRG1 Max % Inhibition” value [2] was over 95%.

In the case of `Nc1ccc(C(=O)NCC(=O)Nc2nc(-c3cccc(N4CCC(C(=O)O)CC4)c3)cs2)cc1` [Compound 187, 1-[3-[2-[[2-[(4-aminobenzoyl)amino]acetyl]amino]thiazol-4-yl]phenyl]piperidine-4-carboxylic acid], the IC50 [1] is reported as 0.1 to 1 µM, the “BRM Max % Inhibition” value [1] is reported as over 70% and the IC50 [2] is reported as 0.1 to 1 µM. For the same compound, the “BRG1 Max % Inhibition” value [2] was over 60%.

In the case of `Cc1ccc(-c2csc(NC(=O)CNC(=O)c3ccc(N)cc3)n2)cc1-c1ccncc1` [Compound 188, 4-amino-N-[2-[[4-[4-methyl-3-(4-pyridyl)phenyl]thiazol-2-yl]amino]-2-oxo-ethyl]benzamide], the IC50 [1] is reported as under 0.1 µM, the “BRM Max % Inhibition” value [1] is reported as over 95% and the IC50 [2] is reported as under 0.1 µM. For the same compound, the “BRG1 Max % Inhibition” value [2] was over 80%.

For `CN(C)CCNc1cc(-c2cccc(-c3csc(NC(=O)CNC(=O)c4ccc(N)cc4)n3)c2)ccn1` [Compound 189, 4-amino-N-[2-[[4-[3-[2-[2-(dimethylamino)ethylamino]-4-pyridyl]phenyl]thiazol-2-yl]amino]-2-oxo-ethyl]benzamide], the IC50 [1] was 0.1 to 1 µM, the “BRM Max % Inhibition” value [1] was over 90% and the IC50 [2] was 0.1 to 1 µM. The “BRG1 Max % Inhibition” value [2] was over 90%.

`CN1CCN(c2cc(-c3cccc(-c4csc(NC(=O)CNC(=O)c5ccc(N)cc5)n4)c3)ccn2)CC1` [Compound 190, 4-amino-N-[2-[[4-[3-[2-(4-methylpiperazin-1-yl)-4-pyridyl]phenyl]thiazol-2-yl]amino]-2-oxo-ethyl]benzamide] was tested, and the IC50 [1] was 0.1 to 1 µM, the “BRM Max % Inhibition” value [1] was over 80% and the IC50 [2] was 0.1 to 1 µM. The “BRG1 Max % Inhibition” value [2] was over 80%.

With `CN(C)CCN(C)c1cc(-c2cccc(-c3csc(NC(=O)CNC(=O)c4ccc(N)cc4)n3)c2)ccn1` [Compound 191, 4-amino-N-[2-[[4-[3-[2-[2-(dimethylamino)ethyl-methyl-amino]-4-pyridyl]phenyl]thiazol-2-yl]amino]-2-oxo-ethyl]benzamide] the IC50 [1] was under 0.1 µM, the “BRM Max % Inhibition” value [1] was over 95% and the IC50 [2] was 0.1 to 1 µM. The “BRG1 Max % Inhibition” value [2] was over 95%.

In the case of `Nc1ccc(C(=O)NCC(=O)Nc2nc(-c3ccc4[nH]ncc4c3)cs2)cc1` [Compound 192], the IC50 [1] is reported as 0.1 to 1 µM, the “BRM Max % Inhibition” value [1] is reported as over 90% and the IC50 [2] is reported as 0.1 to 1 µM. The “BRG1 Max % Inhibition” value [2] was over 90%.

With `Nc1cnc(C(=O)NCC(=O)Nc2nc(-c3cccc(-c4ccncc4)c3)cs2)nc1` [Compound 193, 5-amino-N-[2-oxo-2-[[4-[3-(4-pyridyl)phenyl]thiazol-2-yl]amino]ethyl]pyrimidine-2-carboxamide] the IC50 [1] was 0.1 to 1 µM, the “BRM Max % Inhibition” value [1] was over 80% and the IC50 [2] was 0.1 to 1 µM. For the same compound, the “BRG1 Max % Inhibition” value [2] was over 90%.

In the case of `Cc1cnccc1-c1cccc(-c2csc(NC(=O)CNC(=O)c3ccc(N)cc3)n2)c1` [Compound 194, 4-amino-N-[2-[[4-[3-(3-methyl-4-pyridyl)phenyl]thiazol-2-yl]amino]-2-oxo-ethyl]benzamide], the IC50 [1] is reported as 0.1 to 1 µM, the “BRM Max % Inhibition” value [1] is reported as over 90% and the IC50 [2] is reported as 0.1 to 1 µM. For the same compound, the “BRG1 Max % Inhibition” value [2] was over 80%.

In the case of `Cc1cc(-c2cccc(-c3csc(NC(=O)CNC(=O)c4ccc(N)cc4)n3)c2)ccn1` [Compound 195, 4-amino-N-[2-[[4-[3-(2-methyl-4-pyridyl)phenyl]thiazol-2-yl]amino]-2-oxo-ethyl]benzamide], the IC50 [1] is reported as under 0.1 µM, the “BRM Max % Inhibition” value [1] is reported as over 95% and the IC50 [2] is reported as under 0.1 µM. The “BRG1 Max % Inhibition” value [2] was over 95%.

`CNCc1cc(-c2cccc(-c3csc(NC(=O)CNC(=O)c4ccc(N)cc4)n3)c2)ccn1` [Compound 196, 4-amino-N-[2-[[4-[3-[2-(methylaminomethyl)-4-pyridyl]phenyl]thiazol-2-yl]amino]-2-oxo-ethyl]benzamide] was tested, and the IC50 [1] was 0.1 to 1 µM, the “BRM Max % Inhibition” value [1] was over 95% and the IC50 [2] was 0.1 to 1 µM. For the same compound, the “BRG1 Max % Inhibition” value [2] was over 90%.

`Nc1ccc(C(=O)NCC(=O)Nc2nc(-c3cccc(COc4ccncc4)c3)cs2)cc1` [Compound 197, 4-amino-N-[2-oxo-2-[[4-[3-(4-pyridyloxymethyl)phenyl]thiazol-2-yl]amino]ethyl]benzamide] was tested, and the IC50 [1] was under 0.1 µM, the “BRM Max % Inhibition” value [1] was over 90% and the IC50 [2] was under 0.1 µM. For the same compound, the “BRG1 Max % Inhibition” value [2] was over 80%.

`CC(C)(O)c1cccc(-c2csc(NC(=O)CNC(=O)c3ccc(N)cc3)n2)c1` [Compound 198, 4-amino-N-[2-[[4-[3-(1-hydroxy-1-methyl-ethyl)phenyl]thiazol-2-yl]amino]-2-oxo-ethyl]benzamide] was tested, and the IC50 [1] was 0.1 to 1 µM, the “BRM Max % Inhibition” value [1] was over 80% and the IC50 [2] was 0.1 to 1 µM. For the same compound, the “BRG1 Max % Inhibition” value [2] was over 60%.

For `COc1cc(-c2cccc(-c3csc(NC(=O)CNC(=O)c4ccc(N)cn4)n3)c2)ccn1` [Compound 199, 5-amino-N-[2-[[4-[3-(2-methoxy-4-pyridyl)phenyl]thiazol-2-yl]amino]-2-oxo-ethyl]pyridine-2-carboxamide], the IC50 [1] was 0.1 to 1 µM, the “BRM Max % Inhibition” value [1] was over 95% and the IC50 [2] was 0.1 to 1 µM. For the same compound, the “BRG1 Max % Inhibition” value [2] was over 95%.

In the case of `CN(CC(=O)O)c1cc(-c2cccc(-c3csc(NC(=O)CNC(=O)c4ccc(N)cc4)n3)c2)ccn1` [Compound 200, 2-[[4-[3-[2-[[2-[(4-aminobenzoyl)amino]acetyl]amino]thiazol-4-yl]phenyl]-2-pyridyl]-methyl-amino]acetic acid], the IC50 [1] is reported as under 0.1 µM, the “BRM Max % Inhibition” value [1] is reported as over 95% and the IC50 [2] is reported as under 0.1 µM. The “BRG1 Max % Inhibition” value [2] was over 95%.

`CNC(=O)CN(C)c1cc(-c2cccc(-c3csc(NC(=O)CNC(=O)c4ccc(N)cc4)n3)c2)ccn1` [Compound 202, 4-amino-N-[2-[[4-[3-[2-[methyl-[2-(methylamino)-2-oxo-ethyl]amino]-4-pyridyl]phenyl]thiazol-2-yl]amino]-2-oxo-ethyl]benzamide] was tested, and the IC50 [1] was under 0.1 µM, the “BRM Max % Inhibition” value [1] was over 95% and the IC50 [2] was under 0.1 µM. For the same compound, the “BRG1 Max % Inhibition” value [2] was over 95%.

For `Nc1ccc(C(=O)NCC(=O)Nc2nc(-c3cccc(-c4ccnc(N5CCCCS5(=O)=O)c4)c3)cs2)cc1` [Compound 203, 4-amino-N-[2-[[4-[3-[2-(1,1-dioxothiazinan-2-yl)-4-pyridyl]phenyl]thiazol-2-yl]amino]-2-oxo-ethyl]benzamide], the IC50 [1] was 0.1 to 1 µM, the “BRM Max % Inhibition” value [1] was over 80% and the IC50 [2] was 0.1 to 1 µM. For the same compound, the “BRG1 Max % Inhibition” value [2] was over 80%.

`CN1CCN(c2cccc(-c3csc(NC(=O)CNC(=O)c4ccc(N)cc4)n3)c2)CC1=O` [Compound 204, 4-amino-N-[2-[[4-[3-(4-methyl-3-oxo-piperazin-1-yl)phenyl]thiazol-2-yl]amino]-2-oxo-ethyl]benzamide] was tested, and the IC50 [1] was 0.1 to 1 µM, the “BRM Max % Inhibition” value [1] was over 80% and the IC50 [2] was 0.1 to 1 µM. For the same compound, the “BRG1 Max % Inhibition” value [2] was over 70%.

For `CNC(=O)Cc1cc(-c2cccc(-c3csc(NC(=O)CNC(=O)c4ccc(N)cc4)n3)c2)ccn1` [Compound 205, 4-amino-N-[2-[[4-[3-[2-[2-(methylamino)-2-oxo-ethyl]-4-pyridyl]phenyl]thiazol-2-yl]amino]-2-oxo-ethyl]benzamide], the IC50 [1] was under 0.1 µM, the “BRM Max % Inhibition” value [1] was over 95% and the IC50 [2] was under 0.1 µM. For the same compound, the “BRG1 Max % Inhibition” value [2] was over 95%.
